# ChEMBL document CHEMBL3098103, “High-throughput docking for the identification of new influenza A virus polymerase inhibitors targeting the PA-PB1 protein-protein interaction” (Bioorg Med Chem Lett, 2014)
# Tests used:
# [1] = Inhibition of Influenza A virus H5N1 C-terminal PA interaction to N-terminal PB1 (1 to 25) expressed in human 293T cells by ELISA; type: cell-based
# [2] = Cytotoxicity against MDCK cells; type: cell-based, Canis lupus familiaris; details: dog
SMILES,IC50 [1] [µM],CC50 [2] [µM]
Cc1ccc(-c2cc(-c3ccccc3)nc(S[C@@H](C)C(=O)Nc3ccc(C)c(C)c3)c2C#N)cc1,180,100
N#Cc1c(-c2cccc(Br)c2)cc(-c2ccccc2)nc1SCC(=O)Nc1ccc(Br)cc1,35,100
Cc1ccc(-c2cc(-c3ccccc3)nc(SCC(=O)Nc3cccc(Cl)c3)c2C#N)cc1,180,100
Cc1ccc(-c2cc(-c3ccccc3)nc(S[C@H](C)C(=O)Nc3cccc(Cl)c3)c2C#N)cc1,125,100
CCOC(=O)c1ccc(NC(=O)CSc2nc(-c3ccccc3)cc(-c3ccc(OCc4ccccc4)c(OCC)c3)c2C#N)cc1,30,100
COc1ccc(-c2cc(-c3ccccc3)nc(SCC(=O)Nc3ccccc3)c2C#N)cc1OC,125,100
Cc1ccc(-c2cc(-c3ccccc3)nc(SCC(=O)Nc3cccc(C)c3)c2C#N)cc1,80,100
